Data published in ChEMBL document CHEMBL1201862, “PubChem BioAssay data set” (2004).
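Cells were grown in 96-well plates and exposed to each compound for 48 hours at five concentrations; endpoints were interpolated linearly between bracketing concentrations, or set to the highest concentration if not reached. GI50 is the concentration that inhibits growth by half.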 Activity calls are given as the source filed them. Cut-off read from the data, not from the text of the source: active = GI50 up to about 1.1 µM and inactive = higher.

How the values were obtained:
Experiment in all cases: growth of human tumour cells (NCI), 48 h
[1] = system: HT-29
[2] = system: HCT-116
[3] = system: IGROV-1
[4] = system: EKVX
[5] = system: SK-MEL-5
[6] = system: K562
[7] = system: 786-0
[8] = system: DU-145
[9] = system: NCI/ADR-RES
[10] = system: HCT-15
[11] = system: SF-295
[12] = system: MDA-MB-231
[13] = system: HOP-62
[14] = system: NCI-H460
[15] = system: SF-268
[16] = system: SNB-19
[17] = system: Hs-578T
[18] = system: MOLT-4
[19] = system: T47D

Question: `CC(NC(=O)c1ccc(Cl)c(Cl)c1)c1ccc(-c2ccccc2)cc1` (stereo not given) was tested. Which GI50 [1] did it give?
Answer: 71.6 µM (inactive)

Question: What about the GI50 [2] of the same compound?
Answer: 59.3 µM (inactive)

Question: And the GI50 [3]?
Answer: 32.8 µM (inactive)

Question: And the GI50 [4]?
Answer: 35 µM (inactive)

Question: And the GI50 [5]?
Answer: 75.7 µM (inactive)

Question: And the GI50 [6]?
Answer: > 100 µM (inactive)

Question: What about the GI50 [7] of the same compound?
Answer: 22.5 µM (inactive)

Question: What about the GI50 [8] of the same compound?
Answer: 18.3 µM (inactive)

Question: And the GI50 [9]?
Answer: 54.8 µM (inactive)

Question: What about the GI50 [10] of the same compound?
Answer: > 100 µM

Question: What about the GI50 [11] of the same compound?
Answer: 29.9 µM (inactive)

Question: What about the GI50 [12] of the same compound?
Answer: 42.7 µM (inactive)

Question: And the GI50 [13]?
Answer: 22.2 µM (inactive)

Question: What about the GI50 [14] of the same compound?
Answer: 47.4 µM (inactive)

Question: And the GI50 [15]?
Answer: 29.3 µM (inactive)

Question: And the GI50 [16]?
Answer: 21.1 µM (inactive)

Question: And the GI50 [17]?
Answer: 27 µM (inactive)

Question: For `N=C(N)NCCCC(Nc1c2ccccc2nc2ccccc12)C(=O)O` (stereo not given), which GI50 [1] is on record?
Answer: > 100 µM (inactive)

Question: And the GI50 [2]?
Answer: > 100 µM (inactive)

Question: And the GI50 [4]?
Answer: > 100 µM (inactive)

Question: What about the GI50 [6] of the same compound?
Answer: 84.9 µM (inactive)

Question: And the GI50 [7]?
Answer: > 100 µM (inactive)

Question: What about the GI50 [18] of the same compound?
Answer: 86.7 µM (inactive)

Question: What about the GI50 [10] of the same compound?
Answer: > 100 µM

Question: What about the GI50 [11] of the same compound?
Answer: > 100 µM (inactive)

Question: What about the GI50 [14] of the same compound?
Answer: > 100 µM (inactive)

Question: What about the GI50 [15] of the same compound?
Answer: > 100 µM (inactive)

Question: How did the GI50 [1] turn out when `CCN(CC)CCN1C(=O)c2c(c(-c3ccccc3)c3ccccc3c2-c2ccccc2)C1=O` was run?
Answer: > 100 µM (inactive)

Question: What about the GI50 [2] of the same compound?
Answer: > 100 µM (inactive)

Question: What about the GI50 [3] of the same compound?
Answer: > 100 µM (inactive)

Question: What about the GI50 [4] of the same compound?
Answer: > 100 µM (inactive)

Question: What about the GI50 [5] of the same compound?
Answer: > 100 µM (inactive)

Question: What about the GI50 [6] of the same compound?
Answer: > 100 µM (inactive)

Question: And the GI50 [7]?
Answer: 37.6 µM (inactive)

Question: What about the GI50 [18] of the same compound?
Answer: > 100 µM (inactive)

Question: What about the GI50 [9] of the same compound?
Answer: > 100 µM (inactive)

Question: What about the GI50 [10] of the same compound?
Answer: > 100 µM

Question: What about the GI50 [11] of the same compound?
Answer: 71.6 µM (inactive)

Question: What about the GI50 [12] of the same compound?
Answer: > 100 µM (inactive)

Question: What about the GI50 [13] of the same compound?
Answer: 71.1 µM (inactive)

Question: What about the GI50 [14] of the same compound?
Answer: > 100 µM (inactive)

Question: What about the GI50 [15] of the same compound?
Answer: > 100 µM (inactive)

Question: What about the GI50 [16] of the same compound?
Answer: 46.3 µM (inactive)

Question: And the GI50 [17]?
Answer: > 100 µM (inactive)

Question: Which GI50 [1] does the source give for `c1cc2c(cc1[C@@H]1OC[C@@H]3[C@H]1CO[C@H]3c1ccc3c(c1)OCO3)OCO2` here?
Answer: 60.8 µM (inactive)

Question: And the GI50 [2]?
Answer: 26.9 µM (inactive)

Question: And the GI50 [3]?
Answer: 87.1 µM (inactive)

Question: What about the GI50 [4] of the same compound?
Answer: 29.7 µM (inactive)

Question: And the GI50 [19]?
Answer: 46.3 µM (inactive)

Question: What about the GI50 [5] of the same compound?
Answer: 16 µM (inactive)

Question: What about the GI50 [6] of the same compound?
Answer: 46.8 µM (inactive)

Question: And the GI50 [7]?
Answer: > 100 µM (inactive)

Question: What about the GI50 [8] of the same compound?
Answer: > 100 µM (inactive)

Question: And the GI50 [18]?
Answer: 28.4 µM (inactive)

Question: And the GI50 [9]?
Answer: 36.6 µM (inactive)

Question: And the GI50 [10]?
Answer: > 100 µM

Question: And the GI50 [11]?
Answer: > 100 µM (inactive)

Question: And the GI50 [12]?
Answer: 94 µM (inactive)

Question: What about the GI50 [13] of the same compound?
Answer: > 100 µM (inactive)

Question: What about the GI50 [14] of the same compound?
Answer: > 100 µM (inactive)

Question: What about the GI50 [15] of the same compound?
Answer: > 100 µM (inactive)

Question: What about the GI50 [16] of the same compound?
Answer: > 100 µM (inactive)

Question: For `Clc1ccccc1-c1nnc2c(-c3ccccc3)nc3ccccc3n12`, which GI50 [1] is on record?
Answer: 47.3 µM (inactive)

Question: And the GI50 [2]?
Answer: > 100 µM (inactive)

Question: And the GI50 [3]?
Answer: > 100 µM (inactive)

Question: What about the GI50 [4] of the same compound?
Answer: > 100 µM (inactive)

Question: And the GI50 [19]?
Answer: 5.93 µM (inactive)

Question: And the GI50 [5]?
Answer: > 100 µM (inactive)

Question: And the GI50 [6]?
Answer: > 100 µM (inactive)

Question: What about the GI50 [7] of the same compound?
Answer: 40.9 µM (inactive)

Question: What about the GI50 [8] of the same compound?
Answer: > 100 µM (inactive)

Question: And the GI50 [18]?
Answer: 42.6 µM (inactive)

Question: And the GI50 [9]?
Answer: > 100 µM (inactive)

Question: And the GI50 [10]?
Answer: > 100 µM

Question: What about the GI50 [12] of the same compound?
Answer: > 100 µM (inactive)

Question: And the GI50 [13]?
Answer: 69.3 µM (inactive)

Question: What about the GI50 [14] of the same compound?
Answer: > 100 µM (inactive)

Question: And the GI50 [15]?
Answer: > 100 µM (inactive)

Question: And the GI50 [16]?
Answer: > 100 µM (inactive)

Question: `Cc1cc(S(=O)(=O)N/C(=C(\C#N)C(=O)c2ccc(Cl)cc2)[n+]2ccc(N(C)C)cc2)c([S-])cc1Cl` was tested. Which GI50 [1] did it give?
Answer: 30.1 µM (inactive)

Question: What about the GI50 [2] of the same compound?
Answer: 19.8 µM (inactive)

Question: What about the GI50 [3] of the same compound?
Answer: > 100 µM (inactive)

Question: What about the GI50 [19] of the same compound?
Answer: > 100 µM (inactive)

Question: And the GI50 [5]?
Answer: > 100 µM (inactive)

Question: And the GI50 [6]?
Answer: 53.2 µM (inactive)

Question: And the GI50 [7]?
Answer: > 100 µM (inactive)

Question: What about the GI50 [8] of the same compound?
Answer: > 100 µM (inactive)

Question: What about the GI50 [18] of the same compound?
Answer: > 100 µM (inactive)

Question: And the GI50 [9]?
Answer: 73.3 µM (inactive)

Question: And the GI50 [10]?
Answer: 48.6 µM

Question: What about the GI50 [11] of the same compound?
Answer: 62.2 µM (inactive)

Question: What about the GI50 [12] of the same compound?
Answer: > 100 µM (inactive)

Question: What about the GI50 [13] of the same compound?
Answer: 38.1 µM (inactive)

Question: And the GI50 [14]?
Answer: 42.6 µM (inactive)

Question: What about the GI50 [15] of the same compound?
Answer: 76.6 µM (inactive)

Question: How did the GI50 [1] turn out when `O=C(O)Cc1c(-c2ccc([N+](=O)[O-])cc2)c(=O)oc2cc(O)ccc12` was run?
Answer: 11.6 µM (inactive)

Question: What about the GI50 [2] of the same compound?
Answer: 26.1 µM (inactive)

Question: And the GI50 [3]?
Answer: 61.4 µM (inactive)

Question: And the GI50 [4]?
Answer: 15.1 µM (inactive)

Question: And the GI50 [5]?
Answer: 18.1 µM (inactive)

Question: And the GI50 [6]?
Answer: 30.9 µM (inactive)

Question: What about the GI50 [7] of the same compound?
Answer: 36.5 µM (inactive)

Question: What about the GI50 [8] of the same compound?
Answer: 30.4 µM (inactive)

Question: And the GI50 [18]?
Answer: 4.12 µM (inactive)

Question: What about the GI50 [9] of the same compound?
Answer: 20 µM (inactive)

Question: What about the GI50 [10] of the same compound?
Answer: 24.2 µM

Question: And the GI50 [11]?
Answer: 16.1 µM (inactive)

Question: What about the GI50 [12] of the same compound?
Answer: 29.4 µM (inactive)

Question: And the GI50 [14]?
Answer: 28.9 µM (inactive)

Question: What about the GI50 [15] of the same compound?
Answer: 34.8 µM (inactive)

Question: And the GI50 [16]?
Answer: 25.1 µM (inactive)

Question: And the GI50 [17]?
Answer: 25.9 µM (inactive)

Question: Which GI50 [1] does the source give for `COc1cc(NC(C)c2ccc3c(c2)OCCO3)cc(OC)c1OC` (stereo not given) here?
Answer: 33.7 µM (inactive)

Question: And the GI50 [2]?
Answer: 30.3 µM (inactive)

Question: And the GI50 [3]?
Answer: 59.3 µM (inactive)

Question: What about the GI50 [4] of the same compound?
Answer: 33 µM (inactive)

Question: And the GI50 [5]?
Answer: 18.5 µM (inactive)

Question: What about the GI50 [6] of the same compound?
Answer: 8.97 µM (inactive)

Question: And the GI50 [7]?
Answer: 34.4 µM (inactive)

Question: What about the GI50 [8] of the same compound?
Answer: 36.6 µM (inactive)

Question: And the GI50 [18]?
Answer: 26.3 µM (inactive)

Question: What about the GI50 [9] of the same compound?
Answer: 22.9 µM (inactive)

Question: And the GI50 [10]?
Answer: 24.4 µM

Question: And the GI50 [11]?
Answer: 23.9 µM (inactive)

Question: And the GI50 [12]?
Answer: 32.5 µM (inactive)

Question: And the GI50 [13]?
Answer: 58.7 µM (inactive)

Question: And the GI50 [14]?
Answer: 31.6 µM (inactive)

Question: What about the GI50 [15] of the same compound?
Answer: 26.7 µM (inactive)

Question: What about the GI50 [16] of the same compound?
Answer: 95.5 µM (inactive)

Question: What about the GI50 [17] of the same compound?
Answer: 20.9 µM (inactive)
